Experimental data published in patent US7098195B2, “Fluorinated glucosamine analogs useful for modulating post-translational glycosylations on cells” (Health Research, Inc., priority 2001, dated 2006).

Columns and labels:
[1] = system: panel of human tumor cell lines as well as normal endothelial cells; assay: Growth inhibition (IC50) of human tumor cell lines and normal endothelial cells; format: cell-based; conditions: newly synthesized compounds compared with compounds synthesized by the original method
From the text: Before conducting experiments with newly synthesized 3- and 4-F-GlcNAc the effects of 3- and 4-F-GlcNAc on the growth of a panel of human tumor cell lines as well as normal endothelial cells (i.e. IC50 values) were first determined and compared with the original growth inhibitory action (9 Bernacki, R. J. et al. (1977) J. Supra. Stru., 7:235–250; 10 Sharma, M. and W. Korytnyk (1980) Carbohyd. Res., 79:39–51;11 Sharma, M. et al. (1990). Carbohyd. Res., 198:205–22).

human CLA+ T-cells = assay: Growth inhibition of human CLA+ T-cell cultures (Trypan-blue exclusion); format: cell-based
HECA-452 epitopes = assay: Flow cytometric analysis of HECA-452 epitopes on human T-lymphocytes; format: cell-based; conditions: for HECA-452 Mean Channel Fluorescence: CLA+ T-cells
Protocol: Only positive cells, which were those cells with fluorescence above background autofluorescence and fluorochrome-conjugated secondary Ab staining, were analyzed.
For analysis of CLA expression on T-cells treated with glycoconjugate modifiers, CLA^+ T-cells were first pretreated with neuraminidase (0.1 U/ml at 37° C. for 1 h) to eliminate functional CLA and cleave all HECA-452 reactive epitopes from the cell surface (35–38). Since we wanted to investigate whether these compounds directly affected CLA expression and function, neuraminidase pretreatment followed by incubations with glycosylation modifiers allowed for examination of de novo synthesized CLA/HECA-452 epitopes re-expressed on the cell surface. After neuraminidase digestion, cells were then incubated with tunicamycin (0.02 mM) (an inhibitor of GlcNAc phosphotransferase, the initial step of N-glycosylation), swainsonine (0.23 mM) (an inhibitor of α-mannosidase II and complex-type N-glycosylation), 4-F-GlcNAc (0.05 mM) (putative inhibitor of poly-N-acetyllactosamine biosynthesis), BAG (an inhibitor of O-glycan biosynthesis) (<2 mM) or GlcNAc (5 mM) (negative control, naturally-occurring metabolic counterpart of 4-F-GlcNAc)for 30 h in the presence of human recombinant IL-2. […] Concentrations for BAG were selected based on maximal O-glycosylation inhibitory effects at non-growth inhibitory concentrations as previously reported (39). To determine a suitable concentration of 4-F-GlcNAc for examining glycoconjugate-modifying effects without influencing cell growth or protein synthesis, we performed preliminary growth inhibitory experiments of cells incubated with 4-F-GlcNAc for 2 cell doublings (˜36 h) at 37° C. (cell viability assessed by Trypan-blue exclusion).
Flow cytometric analysis was performed on human leukocytes utilizing both direct and indirect immunofluorescence staining approaches. All cells utilized for these experiments were washed twice with cold PBS/2%FBS and suspended at 10^7/ml PBS/1% FBS. Primary antibodies, anti-CLA (HECA-452), -CD4, -CD8, CD43 (L60) and PSGL-1 (PL-2) along with the appropriate isotype-matched control antibodies were incubated with the cells for 30 min on ice. Following two washes with PBS/2%FBS, cells were resuspended in PBS/1%FBS and fluorochrome-conjugated secondary antibodies (2 μl) and incubated for 30 min on ice.

[2] = system: HECA-452 epitopes on human hematopoietic KG1a cells; assay: Flow cytometric analysis of HECA-452 epitopes on KG1a cells; format: cell-based
From the text: In a similar set of experiments, we analyzed the effects of 4-F-GlcNAc on selectin ligand expression and function on the human hematopoietic cell line KGla. KGla cells express a distinct HECA-452-reactive CD44 glycoform that functions as both an E- and L-selectin ligand (Dimitroff, C. J. et al. (2001) J. Cell Biol., 53: 1277–1286; Dimitroff, C. J. et al. (2000) Proc. Nat. Acad. Sci., 97(25):13841–46; Sackstein, R. and Dimitroff, C. J. (2000) Blood, 96: 2765–74.), otherwise known as HCELL, respectively. This specialized glycoform represents a major E-selectin and the primary L-selectin ligand on normal CD34+ HPCs and on leukemic cells, and, therefore, is also implicated in the BM homing aspects and growth-related activities of HPCs in vivo, respectively (Id.). We first performed flow cytometric analysis of HECA-452 antigen and CD44 on 4-F-GlcNAc-treated KGla cells. […] Only positive cells, which were those cells with fluorescence above background autofluorescence and fluorochrome-conjugated secondary Ab staining, were analyzed.
Flow cytometric analysis was performed on human leukocytes utilizing both direct and indirect immunofluorescence staining approaches. All cells utilized for these experiments were washed twice with cold PBS/2%FBS and suspended at 10^7/ml PBS/1% FBS. Primary antibodies, anti-CLA (HECA-452), -CD4, -CD8, CD43 (L60) and PSGL-1 (PL-2) along with the appropriate isotype-matched control antibodies were incubated with the cells for 30 min on ice. Following two washes with PBS/2%FBS, cells were resuspended in PBS/1%FBS and fluorochrome-conjugated secondary antibodies (2 μl) and incubated for 30 min on ice. Cells were washed twice with PBS/2%FBS, resuspended in PBS and flow cytometry was performed on a FACScan apparatus equipped with an argon laser tuned at 488 nm (Becton Dickinson).

[3] = Toxicity (body weight, white cell counts, tolerability) in DTH mice; format: in vivo, mouse
Protocol: Thus, in these studies, a maximal dose of 250 mg/kg as well as 100 and […] doses were used in order to make both toxic and efficacy assessments of fluorinated hexosamine analog anti-inflammatory effects. To induce delayed type hypersensitivity (DTH), C57BL6 mice were sensitized on their abdomen on days 0 and 1 with 25 μl of 0.5% 2,4-dinitrofluorobenzene (DNFB) (i.e. hapten) in a 4:1 solution of acetone to olive oil (vehicle). Negative control mice were sensitized with vehicle alone. Mice were then treated from days 0–6 with drug vehicle (0.9% saline), 50 mg/kg 4-F-GlcNAc, 100 mg/kg 4-F-GlcNAc, 250 mg/kg 4-F-GlcNAc or 250 mg/kg GlcNAc (negative sugar control). Hapten-induced inflammation was then promoted on day 6 by challenging the mice with 10 μl of 0.25% DNFB on both sides of the right ear and mice also received 10 μl of vehicle alone on both sides of the left ear as a negative inflammatory control. Ear swelling responses were measured 24 h later on day 7 and subtracted from baseline measurements that were recorded on day 6.

[4] = system: HCELL/CD44 activity on human hematopoietic KG1a cells; assay: Stamper-Woodruff adhesion assay, L-selectin-dependent lymphocyte adherence to KG1a cells; format: cell-based; conditions: KG1a neuraminidase then recovery in 0.02 mM

| Compound | IC50 values, growth of tumor cell lines and normal endothelial cells [1] | IC10 value (growth inhibition) (human CLA+ T-cells; 2 cell doublings (~36 h) at 37° C., Trypan-blue exclusion) [µM] | growth inhibitory effects on CLA+ T-cell cultures (human CLA+ T-cells; treated for 36 hr at concentrations less than 0.5 mM) | HECA-452 epitopes on CLA+ T-cells (HECA-452 epitopes; 0.05, 0.1 or 0.5 mM for 30 hr after neuraminidase) | HECA-452 Mean Channel Fluorescence (HECA-452 epitopes; neuraminidase then recovery in 0.05 mM) | HECA-452 Mean Channel Fluorescence (HECA-452 epitopes; neuraminidase then recovery in 0.1 mM) | HECA-452 Mean Channel Fluorescence (HECA-452 epitopes; neuraminidase then recovery in 0.5 mM) | de novo re-expression of the HECA-452 epitopes on KG1a cells ([2]; 0.05, 0.1 or 0.5 mM after neuraminidase) | HECA-452 Mean Channel Fluorescence ([2]; KG1a neuraminidase then recovery in 0.05 mM) | HECA-452 Mean Channel Fluorescence ([2]; KG1a neuraminidase then recovery in 0.1 mM) | HECA-452 Mean Channel Fluorescence ([2]; KG1a neuraminidase then recovery in 0.5 mM) | WBC counts ([3]; 50 mg/kg, days 0–6) | mouse body weight ([3]; 50 mg/kg, days 0–6) | reduction in body weight ([3]; 250 mg/kg, days 0–6) [%] | total white cell counts ([3]; 250 mg/kg, days 0–6) | tolerability ([3]; 250 mg/kg/d×6) | tolerability ([3]; 100 and 50 mg/kg/d×6 days) | % Inhibition (lymphocyte binding) [4] [%] | Mean Lymphocyte Binding [4] |
| --- | --- | --- | --- | --- | --- | --- | --- | --- | --- | --- | --- | --- | --- | --- | --- | --- | --- | --- | --- |
| CC(=O)N[C@H]1C(OC(C)=O)O[C@H](COC(C)=O)[C@@H](F)[C@@H]1OC(C)=O (stereo partly drawn) [4-F-GlcNAc, 2-acetamido-2-deoxy-1,3,6-tri-O-acetyl-4-deoxy-4-fluoro-D-glucopyranose] | identical to those that were previously described | > 200 | no inhibition of growth | marked, concentration-dependent decrease | 228 | 217 | 62 | inhibited in a concentration-dependent manner | 112 | 108 | 43 | did not affect | did not affect | ~5 | 60 % of drug controls | therapy-limiting | well-tolerated | – | – |
| tunicamycin | – | – | – | – | – | – | – | – | – | – | – | – | – | – | – | – | – | 99 | 3.0 |
